Experimental data taken from ChEMBL document CHEMBL1134662, “Selective, high affinity peptide antagonists of alpha-melanotropin action at human melanocortin receptor 4: their synthesis and biological evaluation in vitro” (J Med Chem, 2001).
Peptide text beside a SMILES is read from it.

Experiments:
[1] = biological target: Melanocortin receptor 3 (Homo sapiens, UniProt P41968)
Description: Binding affinity against human melanocortin receptor 3 (hMC3R) (concentration of the peptide at 50% specific binding)

[2] = biological target: T1, Melanocortin receptor 5 (Homo sapiens, UniProt P33032); assay: Increase in intracellular cAMP in CHO cells expressing human melanocortin receptor 5.; type: functional, cell-based
[3] = biological target: Melanocortin receptor 4 (Homo sapiens, UniProt P32245)
Description: Binding affinity against human melanocortin receptor 4 (hMC4R) (concentration of the peptide at 50% specific binding)

[4] = biological target: T1, Melanocortin receptor 5
Description: Binding affinity against human melanocortin receptor 5 (hMC5R) (concentration of the peptide at 50% specific binding)

[5] = biological target: T1, Melanocortin receptor 5; assay: Signal transduction efficacy in cAMP assay in the CHO cells expressing human melanocortin receptor 5; type: functional, cell-based

T1 sequence (P33032 whole entry): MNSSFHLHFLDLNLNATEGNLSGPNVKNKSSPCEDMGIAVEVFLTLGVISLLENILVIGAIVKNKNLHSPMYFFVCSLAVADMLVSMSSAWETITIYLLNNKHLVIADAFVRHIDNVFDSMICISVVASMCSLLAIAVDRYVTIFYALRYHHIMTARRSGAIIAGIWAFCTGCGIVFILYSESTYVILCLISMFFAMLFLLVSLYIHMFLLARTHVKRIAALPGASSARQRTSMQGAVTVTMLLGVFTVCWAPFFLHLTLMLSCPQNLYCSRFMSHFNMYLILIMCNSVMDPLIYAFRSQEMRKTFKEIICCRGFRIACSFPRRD
Sequence of Melanocortin receptor 4 (P32245 whole entry): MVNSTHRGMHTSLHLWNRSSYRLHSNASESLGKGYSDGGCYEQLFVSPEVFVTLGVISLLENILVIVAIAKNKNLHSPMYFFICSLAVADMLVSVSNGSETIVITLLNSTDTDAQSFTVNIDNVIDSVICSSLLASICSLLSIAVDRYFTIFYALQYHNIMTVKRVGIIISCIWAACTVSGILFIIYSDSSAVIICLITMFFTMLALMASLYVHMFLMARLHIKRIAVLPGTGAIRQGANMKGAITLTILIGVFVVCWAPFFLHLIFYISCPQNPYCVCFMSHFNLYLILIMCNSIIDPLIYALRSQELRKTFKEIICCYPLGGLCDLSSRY
Sequence of Melanocortin receptor 3 (P41968 whole entry): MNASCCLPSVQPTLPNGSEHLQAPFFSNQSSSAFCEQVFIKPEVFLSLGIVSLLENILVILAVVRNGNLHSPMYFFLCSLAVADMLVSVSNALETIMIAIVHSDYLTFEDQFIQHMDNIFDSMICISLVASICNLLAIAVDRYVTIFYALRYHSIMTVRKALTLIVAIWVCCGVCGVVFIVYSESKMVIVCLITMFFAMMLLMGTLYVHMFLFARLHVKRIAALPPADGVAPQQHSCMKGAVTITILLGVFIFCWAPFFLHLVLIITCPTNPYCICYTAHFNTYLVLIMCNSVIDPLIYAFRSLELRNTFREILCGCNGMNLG

SMILES	Ki [1] [µM]	EC50 [2] [µM]	Ki [3] [µM]	Ki [4] [µM]	EC50 ([2]; cho) [µM]	Activation at 5 µM at 5nM [5] [%]	Inhibition at 10nM [5] [%]
N=C(N)NCCC[C@@H]1NC(=O)[C@@H](Cc2ccc3ccccc3c2)NC(=O)CCC(=O)NCCCC[C@@H](C(N)=O)NC(=O)[C@H](Cc2c[nH]c3ccccc23)NC1=O	0.15	0.53	0.0005	0.54	–	–	–
CC(=O)N[C@H]1CSSC[C@@H](C(=O)N2CCC[C@H]2C(=O)N2CCC[C@H]2C(=O)N[C@@H](CCCCN)C(=O)N[C@@H](CC(=O)O)C(N)=O)NC(=O)CNC(=O)[C@H](Cc2c[nH]c3ccccc23)NC(=O)[C@H](CCCNC(=N)N)NC(=O)[C@@H](Cc2ccc3ccccc3c2)NC(=O)[C@H](Cc2c[nH]cn2)NC(=O)[C@H](CCC(=O)O)NC1=O (HELM PEPTIDE1{[ac].C.E.H.[O=C([C@@H](Cc1ccc2ccccc2c1)N[*:1])[*:2]].R.W.G.C.P.P.K.D.[am]}$PEPTIDE1,PEPTIDE1,2:R3-9:R3$$$V2.0)	0.025	0.042	0.0015	0.016	–	–	–
N=C(N)NCCC[C@@H]1NC(=O)[C@@H](Cc2ccc3ccccc3c2)NC(=O)[C@H](Cc2c[nH]cn2)NC(=O)CCC(=O)NC[C@@H](C(N)=O)NC(=O)[C@H](Cc2c[nH]c3ccccc23)NC1=O	0.029	0.21	0.00026	0.065	–	–	–
CCC1CC(=O)N[C@H](Cc2ccc3ccccc3c2)C(=O)N[C@@H](CCCN=C(N)N)C(=O)N[C@@H](Cc2c[nH]c3ccccc23)C(=O)N[C@H](C(N)=O)CCCCNC1=O (stereo in doubt; 17)	0.12	–	0.00058	0.14	0.24	–	–
N=C(N)NCCC[C@@H]1NC(=O)[C@@H](Cc2ccc3ccccc3c2)NC(=O)[C@H](Cc2c[nH]cn2)NCC(=O)CC[C@@H](C(N)=O)NC(=O)[C@H](Cc2c[nH]c3ccccc23)NC1=O	2.9	–	0.42	2.4	> 5	–	–
CC(=O)N[C@H]1CSSC[C@@H](C(=O)N2CCC[C@H]2C(=O)N2CCC[C@H]2C(=O)N[C@@H](CCCCN)C(=O)N[C@@H](CC(=O)O)C(N)=O)NC(=O)CNC(=O)[C@H](Cc2c[nH]c3ccccc23)NC(=O)[C@H](CCCN=C(N)N)NC(=O)[C@@H](Cc2ccc(Cl)c(Cl)c2)NC(=O)[C@H](Cc2c[nH]cn2)NC(=O)[C@H](CCC(=O)O)NC1=O	0.02	0.073	0.0022	0.022	–	–	–
N=C(N)NCCC[C@@H]1NC(=O)[C@@H](Cc2ccc3ccccc3c2)NC(=O)CCC(=O)NCCCC[C@H](C(N)=O)NC(=O)[C@@H](Cc2c[nH]c3ccccc23)NC1=O	5.9	–	1.3	4.9	–	0	–
N=C(N)NCCC[C@@H]1NC(=O)[C@@H](Cc2ccc3ccccc3c2)NCC(=O)CC[C@@H](C(N)=O)NC(=O)[C@H](Cc2c[nH]c3ccccc23)NC1=O	5.9	–	0.96	5	–	–	–
N=C(N)NCCC[C@@H]1NC(=O)[C@@H](Cc2ccc3ccccc3c2)NC(=O)CCC(=O)NC[C@@H](C(N)=O)NC(=O)[C@H](Cc2c[nH]c3ccccc23)NC1=O	1.5	–	0.11	4.8	> 5	–	–
N=C(N)NCCC[C@@H]1NC(=O)[C@H](Cc2ccc3ccccc3c2)NC(=O)CCC(=O)NC2CCC(C(N)=O)N2C(=O)[C@@H](Cc2c[nH]c3ccccc23)NC1=O (stereo not given in full)	3	–	0.6	2.5	–	3	–
CC(=O)N[C@H]1CC(=O)NCCCC[C@@H](C(N)=O)NC(=O)[C@H](Cc2c[nH]c3ccccc23)NC(=O)[C@H](CCCNC(=N)N)NC(=O)[C@@H](Cc2ccc3ccccc3c2)NC1=O	0.19	1	0.0043	0.72	–	–	–
CCC1CC(=O)N[C@H](Cc2ccc3ccccc3c2)C(=O)N[C@@H](CCCN=C(N)N)C(=O)N[C@@H](Cc2c[nH]c3ccccc23)C(=O)N[C@H](C(N)=O)CCCCNC1=O (stereo in doubt; 18)	0.24	–	0.0015	0.4	0.22	–	–
N=C(N)NCCC[C@@H]1NC(=O)[C@@H](Cc2ccc3ccccc3c2)NC(=O)CCC(=O)NCCC[C@@H](C(N)=O)NC(=O)[C@H](Cc2c[nH]c3ccccc23)NC1=O	0.056	0.3	0.00037	0.13	–	–	–
N=C(N)NCCC[C@@H]1NC(=O)[C@@H](Cc2ccc3ccccc3c2)NC(=O)[C@@H](N)CC(=O)NCCCC[C@@H](C(N)=O)NC(=O)[C@H](Cc2c[nH]c3ccccc23)NC1=O	0.42	0.2	0.004	0.024	–	–	–
CC(=O)N[C@H]1CSSC[C@@H](C(N)=O)NC(=O)CNC(=O)[C@H](Cc2c[nH]c3ccccc23)NC(=O)[C@H](CCCN=C(N)N)NC(=O)[C@@H](Cc2ccc3ccccc3c2)NC(=O)[C@H](Cc2c[nH]cn2)NC(=O)[C@H](CCC(=O)O)NC1=O	0.0026	–	0.00057	0.00039	0.00022	–	–
N=C(N)NCCC[C@@H]1NC(=O)[C@H](Cc2ccc3ccccc3c2)NC(=O)CCC(=O)NCC[C@H](C(N)=O)NC(=O)[C@@H](Cc2c[nH]c3ccccc23)NC1=O	–	–	–	–	–	13	–
N=C(N)NCCC[C@@H]1NC(=O)[C@@H](Cc2ccc3ccccc3c2)NC(=O)CCC(=O)NCC[C@@H](C(N)=O)NC(=O)[C@H](Cc2c[nH]c3ccccc23)NC1=O	3	–	0.058	2.7	–	–	–
N=C(N)NCCC[C@@H]1NC(=O)[C@@H](Cc2ccc3ccccc3c2)NCC(=O)CC[C@H](C(N)=O)NC(=O)[C@@H](Cc2c[nH]c3ccccc23)NC1=O	–	–	–	–	–	–	1
N=C(N)NCCC[C@@H]1NC(=O)[C@@H](Cc2ccc3ccccc3c2)NC(=O)[C@H](Cc2cnc[nH]2)NC(=O)[C@@H](N)CC(=O)NCCCC[C@@H](C(N)=O)NC(=O)[C@H](Cc2c[nH]c3ccccc23)NC1=O	0.014	0.018	0.0016	0.018	–	–	–
N=C(N)NCCC[C@H]1NC(=O)[C@@H](Cc2ccc3ccccc3c2)NC(=O)CCC(=O)NCCCC[C@H](C(N)=O)NC(=O)[C@@H](Cc2c[nH]c3ccccc23)NC1=O	5.9	–	3.7	7	–	5	–
N=C(N)NCCC[C@@H]1NC(=O)[C@@H](Cc2ccc3ccccc3c2)NC(=O)[C@H](Cc2c[nH]cn2)NC(=O)CCC(=O)NCCCC[C@@H](C(N)=O)NC(=O)[C@H](Cc2c[nH]c3ccccc23)NC1=O	0.047	0.17	0.00088	0.15	–	–	–
N=C(N)NCCC[C@@H]1NC(=O)[C@@H](Cc2ccc3ccccc3c2)NC(=O)CCC(=O)NCCCC[C@H](C(N)=O)NC(=O)[C@H](Cc2c[nH]c3ccccc23)NC1=O	5.9	–	3.8	4.9	–	7	–
